Measurements: publication PMC8512853, “Synthesis, Bioactivity, Pharmacokinetic and Biomimetic Properties of Multi-Substituted Coumarin Derivatives” (Molecules, 2021)

How the values were obtained:
[1] = ABTS radical scavenging assay; settings: 6 min
Protocol: The ABTS radical cation scavenging assay is a decolorization assay frequently used as an antioxidant activity estimation protocol. […] The absorbance is measured at 734 nm and the antioxidant capacity is compared to a standard antioxidant solution, such as ascorbic acid.
For the evaluation of antioxidant activity, the scavenging capacities of all samples were measured via the ABTS assay, as previously described by Kontogiorgis et al. with some modifications. Briefly, an ethanolic standard ABTS solution (7 mM) was prepared by the addition of ABTS salt and potassium persulfate. […] Each sample was diluted in DMSO and tested in triplicate. The tested mixture contained 10–20 µL of sample and 990–980 µL of the ABTS solution, for a total volume of 1 ml. Blank samples contained equal amounts of DMSO instead of the coumarin analogues, and ascorbic acid was used as a reference sample for the final evaluation of the ABTS scavenging capacity. All mixtures were stored at room temperature to allow decolorization and measured after 6 min. The percentage reduction of the ABTS radical was evaluated according to the following Equation (3):(3) % Reduction=Control OD (mean)−Sample OD (mean)/Control OD (mean)×100

[2] = Hydroxyl (HO•) free radical scavenging assay (competition with DMSO)
From the text: The hydroxyl (HO^•) free radical is considered as the most toxic and reactive radical among the ROS, leading to cellular or protein damage, membrane destruction, and even to cellular death when encountered in excess concentration. In this context, the evaluation of the hydroxyl radical scavenging activity of the coumarin analogues was essential. Hydroxyl radicals are mainly produced by the Haber–Weiss reaction in the presence of iron or copper ions. In this protocol, iron-EDTA solution, which catalyzes the autooxidation of ascorbic acid, was used as the hydroxyl radical generation system. In general, the hydroxyl radicals formed oxidize the DMSO to form formaldehyde. The reaction involves the initial interaction of DMSO with the hydroxyl radicals to give methyl radicals, with the final product being formaldehyde, which is determined by Nash method. The intensity of the yellow solution formed was measured at 412 nm against a reagent blank.
For the evaluation of hydroxyl radical scavenging ability, the protocol described by Kontogiorgis et al. was used. In short, each sample was tested in quadruplicate (A, B, C, D). For A and B, 10 μL of coumarin analogs diluted in DMSO (100 mM) were added; for C and D were the respective blanks. Standards (containing DMSO solution) and blanks were all prepared in a similar manner; to the latter an equal amount (10 µL) of solvent was added instead of the tested analogues. According to the protocol described by Klein et al., standard solutions of EDTA, FeCl3, ascorbic acid, and buffer solution (pH 7.4) were also added to each of the tested mixtures. All mixtures were incubated at 37 °C for 30 min, and then 1 mL of Nash solution and […] of CCl3COOH solution were added. After a 10min incubation at 60 °C to allow the formation of the yellow mixture, the absorbance was measured at […].
The results were calculated as performance percentages in relation to the respective standards and blanks according to the following Equation (4):(4) % Scavenging ability= Mean OD(A+B)−Mean OD(C+D)/Mean OD(A+B)

[3] = Inhibition of AAPH induced linoleic acid oxidation (lipid peroxidation); settings: 100 μΜ
From the text: AAPH induced linoleic acid oxidation has been developed as a quick and reliable antioxidant activity assay. It is based on the inhibition of linoleic acid oxidation, initiated by the thermal free radical producer 2,2′-azobis(2-amidinopropane) dihydrochloride (AAPH), providing a measure of how efficiently antioxidants protect against lipid oxidation in vitro. Oxidation of exogenous linoleic acid by AAPH is followed by UV spectrophotometry at 234 nm in a highly diluted sample [38].
For the reference sample in a UV cuvette, 10 μL of the test sample (100 μM diluted in DMSO), 10 μL linoleic acid (LA) (16 mM), and buffer solution (pH 7.4) were added to a final volume of 1ml. For the measurement sample, in a UV cuvette, 10 μL of test sample, 50 μL AAPH (40 mM), 10 μL LA, and buffer solution were added to a final volume of 1 mL. Standard and blank samples were prepared in the same way using DMSO (solvent) instead of the tested coumarin analogues. The absorbance was measured after 2 min at 37 °C at 234 nm. Results were obtained via the following Equation (5):(5) %Inhibition=(Standard−Blank)−(Reference Sample−Measurement Sample)/(Standard−Blank) × 100

[4] = MTT cell viability assay, HaCaT; format: cell-based, human; settings: human, HaCaT cells, 100 μΜ, 24 h
From the text: The MTT assay (3- [4,5-dimethylthiazol-2-yl] -2,5 diphenyl tetrazole) is based on the conversion of MTT to formazan crystals by living cells, which determines mitochondrial activity. Since for most cell populations total mitochondrial activity is related to the number of viable cells, this assay is widely used to measure the in vitro cytotoxic effects of drugs on various cell lines or primary cells. The principle of the MTT assay is that for most viable cells the mitochondrial activity is stable, and therefore, an increase or decrease in the number of viable cells is linearly related to mitochondrial activity. The mitochondrial activity of the cells is reflected by the conversion of the MTT tetrazole salt to formazan crystals (bright purple), which can be solubilized (in this protocol with DMSO) for homogeneous measurement. Thus, any increase or decrease in the number of viable cells can be detected by measuring the formazan concentration reflected in the optical density (OD) measurement at 540 nm with a reference absorption of 720 nm.
All the compounds were tested for their cytotoxic activity against blank and control samples in the human epidermal keratinocyte line (HaCaT), at the concentration of 100 μΜ, and the results are presented in Table 4.
(§1) This protocol was used for the evaluation of cell viability and all the cell lines. It must be noted that this assay describes the count of cells that remain alive after the treatment. For the experimental procedure a standard solution of MTT 1mg/mL in PBS was prepared which after filtration ([…] filter (Millipore, Carrigtwohill, Ireland)) was stored in the dark (4–8 °C) until use. In a 96-well plate, HaCaT, A549 and A375 cells were seeded in a number of 30 × 10^4 cells/well for each evaluation series respectively. The cells were incubated (37 °C, 5% CO2) for 24 h, followed by the addition of the tested analogues (100 μM, diluted in DMEM) and another 24-h incubation. Next, appropriate amount of MTT was added in the tested wells and the plate returned to the incubator for the next 4 h for the formation of the formazan crystals. The formazan crystals were then redissolved by adding DMSO (100 μL) and stirring lightly for 40 min, after which the absorbance was measured in a plate reader at 540 nm with a reference absorbance of 720 nm.
(§2) All samples were tested in triplicate, against a control (only cells), blank (no cells), and positive control (100 μM standard silibinin solution was used as a “cell-killing” standard).

A549 cells = assay: MTT cytotoxicity assay, A549; format: cell-based, human; settings: Homo sapiens; A549, 100 μΜ, 24 h; read-out: Cell Toxicity A549 % (100 μΜ)
Protocol: (§3) Furthermore, the coumarin compounds synthesized in this study were also evaluated for their cytotoxicity against A549 (adenocarcinomic human alveolar basal epithelial cells) and A375 (human melanoma) cell lines.
as §1, §2

A375 cells = assay: MTT cytotoxicity assay, A375; format: cell-based, human; settings: Homo sapiens, A-375, 24 h, A375, 100 μΜ, read-out: Cell Toxicity A375 % (100 μΜ)
Protocol: as §3, §1, §2

HaCaT cells = assay: DCF-DA assay (intracellular ROS after H2O2); format: cell-based, human; settings: Homo sapiens, 100 μΜ, H2O2 treatment, 24 h, read-out: DCFDA Assay, % (100 μΜ)
From the text: In the setting of evaluating bioactive compounds in terms of antioxidant capacity in various cell lines, DCF-DA is the most widely used assay for the detection of intracellular H2O2 and oxidative stress. DCF-DA is cell-permeable and is hydrolyzed intracellularly to the DCFH carboxylate anion, which is retained in the cell.
DCFDA is a fluorescent dye that measures the activity of hydroxyl radicals, peroxyl radicals, and other reactive oxygen species (ROS) within the cell. The DCFDA analysis protocol is based on the diffusion of DCFDA into the cell. It is then deacetylated from cellular esterases to a non-fluorescent compound, which is later oxidized by ROS to 2’,7’ -dichlorofluoroscein (DCF). The produced compound (DCF) is fluorescent and is detected by fluorescence spectroscopy at 485/535 nm (excitation/emission).
For the experimental procedure a standard solution of DCF-DA (20mM) in DMSO was prepared which was stored in the dark (−20 °C) until use. In a 96-well plate, cells were cultured to a density of 3 × 10^4 cells/well.
The cells remained in the incubator (37 °C, 5% CO2) for 24 h, after which an appropriate amount of H2O2 (2 mM) was added and the dish was returned for incubation for the next 2 h. This was followed by the addition of the test substances (100μM) and incubation for 24 h. At the end of the treatment time, all wells were washed with PBS, and DCF-DA solution (working concentration: 10 μM) (in 200 μL of nutrient) was added and incubated for 40 min.
After incubation, the medium with the DCF-DA was removed and replaced with FBS-free DMEM. The measurement of the […] was made immediately after that in a plate reader at 495/530 nm (excitation/emission).
All samples were tested in triplicates, against a control (without effects), blank (without cells), and positive control (standard 100 μM Ascorbic acid solution was used).
The percentage of antioxidant capacity (%) was calculated according to the following Equation (6) evaluating the presence of ROS [42]:(6) % AI=( OD Sample 530 nm−Blank)−(OD Control 530 nm−Blank)/(OD Control 530 nm−Blank) × 100

SMILES	ABTS^•+ % (100 μΜ) [1] [%]	HO^• % (100 μΜ) scavenging [2] [%]	AAPH % inhibition (100 μΜ) [3] [%]	viability at 24 h, 100 μM [4] [%]	cytotoxicity at 100 µM (A549 cells) [%]	cytotoxicity at 100 µM (A375 cells) [%]	inhibition at 100 µM (HaCaT cells) [%]
Cc1c(C)c2c(c(C)c1O)CCC(C)(C(=O)O)O2 (centres unmarked) [Trolox, reference compound]	92.0	85.0	92	–	–	–	–
COc1cc(C2Oc3cc([C@H]4Oc5cc(O)cc(O)c5C(=O)[C@@H]4O)ccc3OC2CO)ccc1O (some centres unmarked) [Silibinin, reference compound]	–	–	–	35.7	78.3	84.4	–
O=C1O[C@H]([C@@H](O)CO)C(O)=C1O [Ascorbic acid, reference compound]	99.1	–	–	–	–	–	87
